In assay [1] the target is penicillinase (β-lactamase) from Bacillus SP. As to the kind of experiment: Test for β-lactamase inhibitory activity (microiodometry, penicillin G as substrate). Format: biochemical. The following applies: read-out: 50% Inhibitory Concentration. The procedure:
The inhibitory activity of each compound against penicillinase (β-lactamase) from Bacillus SP was determined by microiodometry [Tanpakushitsu Kakusan Koso (Proteins, Nucleic Acids and Enzymes), vol. 23, No.5, pp 391-400 (1978)] using penicillin G as a substrate.

The next assay relates to Acinetobacter 450 L. The assay is described as follows: MIC of piperacillin alone or with compound, Acinetobacter 450 L. Format: cell-based. Conditions: alone, Mueller Hinton Broth, 10^6 CFU/ml, 37° C., 20 hours. The protocol:
(§1) (1) The minimal inhibitory concentrations (MIC) of piperacillin in the presence of 10 μg/ml of compounds of the present invention against various bacteria were determined by the MIC assay method of Japan Society of Chemotherapy (Chemotherapy 29, No. 1, pp. 76-79, 1981). The MIC values of various compounds according to the present invention and of piperacillin, as used singly, were also determined. Each test strain was grown in Mueller Hinton Broth (Difco) and used for inoculation after dilution to a concentration of 10^6 CFU/ml. The assay media (Mueller Hinton Broth) containing piperacillin and the compound according to the present invention in a series of concentrations were inoculated with the test strain and incubated at 37° C. for 20 hours. The minimum concentration at which no more than 5 colonies were observed was determined. […] All the test strains used in the above assays were β-lactamase producers.

In assay [2] the test system is Pseudomonas aeruginosa PSE 3. The assay is described as follows: MIC of piperacillin alone or with compound, Pseudomonas aeruginosa PSE 3. Type of assay: cell-based. The following applies: PSE3, alone, Mueller Hinton Broth, 10^6 CFU/ml, 37° C., 20 hours. The protocol: as §1
Assay [3] deals with Serratia marcescens 200 L (TEM + C). The assay is described as follows: MIC of piperacillin alone or with compound, Serratia marcescens 200 L (TEM + C). Conditions: alone, Mueller Hinton Broth, 10^6 CFU/ml, 37° C., 20 hours. Format: cell-based. The protocol:
as §1

Assay [4] relates to Klebsiella pneumoniae 101 L (TEM1). As to the kind of experiment: MIC of piperacillin alone or with compound, Klebsiella pneumoniae 101 L (TEM1). Format: cell-based. The following applies: 20 h, read-out: MIC, Piperacillin alone. The procedure:
as §1

In assay [5] the test system is Staphylococcus aureus 54 K. As to the kind of experiment: MIC of piperacillin alone or with compound, Staphylococcus aureus 54 K. Type of assay: cell-based. The following applies: alone, Mueller Hinton Broth, 10^6 CFU/ml, 37° C., 20 hours. The procedure: as §1
The subject of the next assay is Echerichia coli SHV 1. As to the kind of experiment: MIC of piperacillin alone or with compound, Echerichia coli SHV 1. The following applies: 20 h, read-out: MIC, Piperacillin alone. Format: cell-based. The procedure: as §1
The subject of the next assay is Morganella morganii 119. The assay is described as follows: MIC of piperacillin alone or with compound, Morganella morganii 119. Type of assay: cell-based. Conditions: alone, Mueller Hinton Broth, 10^6 CFU/ml, 37° C., 20 hours. The procedure: as §1

In general, MIC refers to the lowest concentration found to suppress growth.

Turning to `CC1(CSC#N)C(C(=O)O)N2C(=O)CC2S1(=O)=O` (stereo not drawn) [Compound 26, sodium 2α-methyl-2β-thiocyanatomethylpenam-3α-carboxylate 1,1-dioxide], in assay [1], the IC50 was determined as 9.8 µM.
On the same count and under the same terms, then `Cn1nnnc1SCC1(C)C(C(=O)O)N2C(=O)CC2S1(=O)=O` (stereo not drawn) [Compound 27, sodium 2α-methyl-2β-(1-methyl-5-tetrazolyl)thiomethylpenam-3α-carboxylate 1,1-dioxide], with 0.87 µM; and `CC1(CSc2nnnn2-c2ccccc2)C(C(=O)O)N2C(=O)CC2S1(=O)=O` (stereo not drawn) [Compound 28, sodium 2α-methyl-2β-(1-phenyl-5-tetrazolyl)thiomethylpenam-3α-carboxylate 1,1-dioxide], with 1 µM; and `CC1(CSc2nnnn2-c2ccc(Cl)cc2)C(C(=O)O)N2C(=O)CC2S1(=O)=O` (stereo not drawn) [Compound 29, sodium 2β-(1-p-chlorophenyl-5-tetrazolylthio)methyl-2α-methylpenam-3α-carboxylate 1,1-dioxide], with 0.48 µM.
As for `COc1ccc(-n2nnnc2SCC2(C)C(C(=O)O)N3C(=O)CC3S2(=O)=O)cc1` (stereo not drawn) [Compound 30, sodium 2β-(1-p-methoxyphenyl-5-tetrazolylthio)methyl-2α-methylpenam-3α-carboxylate 1,1-dioxide], the IC50 in assay [1] was found to be 0.75 µM.
Consider `CC1(CSc2nnnn2CCO)C(C(=O)O)N2C(=O)CC2S1(=O)=O` (stereo not drawn) [Compound 31, sodium 2β-[1-(2'-hydroxyethyl)-5-tetrazolylthio]methyl-2α-methylpenam-3α-carboxylate 1,1-dioxide], for which the IC50 in assay [1] worked out at 1.82 µM.
Regarding `CCN1CCN(C(=O)N[C@@H](C(=O)N[C@@H]2C(=O)N3[C@@H]2SC(C)(C)[C@@H]3C(=O)O)c2ccccc2)C(=O)C1=O` [Piperacillin, piperacillin], the MIC with Acinetobacter 450 L amounted to 200 µg/mL; in assay [2], 50 µg/mL; in assay [3] it was 25 µg/mL; in assay [4], 200 µg/mL; in assay [5] it was 6.25 µg/mL; in the assay with Echerichia coli SHV 1 it was 12.5 µg/mL. Moreover, the MIC in the assay on Morganella morganii 119 came out at 25 µg/mL.

The values above are taken from patent publication US4861768A, “2 β-substituted thiomethylpenicillin derivatives and their preparation and use” (Taiho Pharmaceutical Company, Limited, priority 1986, dated 1989).
